Tests used:
Assay in all cases: KinomeScan 96-kinase panel
Format in all cases: binding
Conditions in all cases: compound concentration 1000 nM
[1] = biological target: SRC (Homo sapiens (Human), UniProt P12931)
Source text: (§1) The details of the screening technology were described in Fabian, M. A. et al, Nat., Biotechnol. 2005, 23, 329 and Karaman, M. W. et al, Nat., Biotechnol. 2008, 26, 127. From the above representative results, it can be seen that the compounds of the present invention have potent inhibitory activities on kinases including ALK, AXL, VEGFR2, PDGFR-α, PDGFR-β, c-KIT, Flt3, MEK1, MEK2, CSF1R, EPHA2, EPHA2, MKNK2, SRC, TIE2 and their mutants. Accordingly, the compounds of the present invention can be used for the treatment of diseases caused by abnormal activities of these kinases, e.g., cancer, psoriasis, hepatic cirrhosis, diabetes, diseases involving angiogenesis, eye diseases, immune system diseases, cardiovascular diseases, and so forth.

[2] = biological target: PIK3C2B (Homo sapiens (Human), UniProt O00750)
Source text: as §1

[3] = biological target: TYK2 (JH1domain-catalytic) (Homo sapiens (Human), UniProt P29597)
Source text: as §1

[4] = biological target: p38-alpha (Homo sapiens (Human), UniProt Q16539)
Source text: as §1

[5] = biological target: TRKA (Homo sapiens (Human), UniProt P04629)
Sequence of TRKA (P04629 33-796): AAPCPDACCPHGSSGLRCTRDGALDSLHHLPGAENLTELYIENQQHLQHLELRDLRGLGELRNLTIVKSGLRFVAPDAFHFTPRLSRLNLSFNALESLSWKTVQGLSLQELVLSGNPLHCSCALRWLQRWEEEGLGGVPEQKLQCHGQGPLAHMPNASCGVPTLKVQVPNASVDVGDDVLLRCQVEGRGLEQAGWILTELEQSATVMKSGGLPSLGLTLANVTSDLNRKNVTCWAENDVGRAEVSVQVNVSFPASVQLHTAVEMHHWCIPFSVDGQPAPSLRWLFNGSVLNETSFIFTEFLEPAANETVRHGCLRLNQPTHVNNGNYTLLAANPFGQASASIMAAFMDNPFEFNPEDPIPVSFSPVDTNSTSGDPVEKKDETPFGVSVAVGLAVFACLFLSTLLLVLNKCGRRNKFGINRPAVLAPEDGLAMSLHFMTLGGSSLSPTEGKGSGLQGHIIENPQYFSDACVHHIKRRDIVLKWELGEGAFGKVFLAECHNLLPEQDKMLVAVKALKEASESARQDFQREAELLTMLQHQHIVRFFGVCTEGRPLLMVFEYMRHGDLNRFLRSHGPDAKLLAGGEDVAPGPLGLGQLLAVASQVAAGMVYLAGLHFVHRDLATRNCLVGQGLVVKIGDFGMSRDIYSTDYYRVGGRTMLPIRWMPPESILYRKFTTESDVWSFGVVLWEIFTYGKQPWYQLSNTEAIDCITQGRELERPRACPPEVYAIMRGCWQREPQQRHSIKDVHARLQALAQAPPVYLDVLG
Source text: as §1

[6] = biological target: MET (Homo sapiens (Human), UniProt P08581)
Source text: as §1

[7] = biological target: JAK3 (JH1domain-catalytic) (Homo sapiens (Human), UniProt P52333)
Source text: as §1

[8] = biological target: PDPK1 (Homo sapiens (Human), UniProt O15530)
Source text: as §1

[9] = biological target: CSNK1D (Homo sapiens (Human), UniProt P48730)
Source text: as §1

[10] = biological target: PIM1 (Homo sapiens (Human), UniProt P11309)
Source text: as §1

[11] = biological target: CDK2 (Homo sapiens (Human), UniProt P24941)
Source text: as §1

[12] = biological target: YANK3 (Homo sapiens (Human), UniProt Q86UX6)
Sequence of YANK3 (Q86UX6 whole entry): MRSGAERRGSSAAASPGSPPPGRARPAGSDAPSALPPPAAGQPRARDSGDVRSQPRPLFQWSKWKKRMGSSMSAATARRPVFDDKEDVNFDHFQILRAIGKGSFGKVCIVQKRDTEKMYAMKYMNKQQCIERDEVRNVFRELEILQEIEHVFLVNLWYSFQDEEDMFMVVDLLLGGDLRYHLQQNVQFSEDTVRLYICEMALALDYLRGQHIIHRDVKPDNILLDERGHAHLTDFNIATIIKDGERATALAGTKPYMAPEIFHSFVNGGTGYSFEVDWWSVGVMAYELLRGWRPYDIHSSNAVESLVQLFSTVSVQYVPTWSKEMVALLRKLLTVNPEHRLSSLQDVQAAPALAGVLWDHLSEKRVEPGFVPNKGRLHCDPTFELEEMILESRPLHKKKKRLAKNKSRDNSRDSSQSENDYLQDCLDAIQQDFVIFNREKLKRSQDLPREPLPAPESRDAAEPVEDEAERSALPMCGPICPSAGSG
Source text: as §1

[13] = biological target: EPHA2 (Homo sapiens (Human), UniProt P29317)
Source text: as §1

[14] = biological target: CDK11 (Homo sapiens (Human), UniProt Q9BWU1)
Sequence of CDK11 (Q9BWU1 whole entry): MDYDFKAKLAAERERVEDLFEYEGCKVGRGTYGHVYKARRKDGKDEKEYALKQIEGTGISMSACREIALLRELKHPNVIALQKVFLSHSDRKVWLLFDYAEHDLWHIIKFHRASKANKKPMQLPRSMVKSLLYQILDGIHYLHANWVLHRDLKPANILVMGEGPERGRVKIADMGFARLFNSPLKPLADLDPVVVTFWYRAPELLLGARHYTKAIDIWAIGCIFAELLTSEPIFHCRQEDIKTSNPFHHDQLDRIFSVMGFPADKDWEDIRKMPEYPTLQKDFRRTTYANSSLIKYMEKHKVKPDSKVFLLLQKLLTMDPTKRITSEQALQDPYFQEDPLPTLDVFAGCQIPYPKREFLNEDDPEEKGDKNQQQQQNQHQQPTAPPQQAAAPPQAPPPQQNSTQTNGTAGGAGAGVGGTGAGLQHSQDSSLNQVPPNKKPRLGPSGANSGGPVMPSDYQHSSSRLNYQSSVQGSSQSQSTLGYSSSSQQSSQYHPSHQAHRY
Source text: as §1

[15] = biological target: PLK3 (Homo sapiens (Human), UniProt Q9H4B4)
Source text: as §1

[16] = biological target: ULK2 (Homo sapiens (Human), UniProt Q8IYT8)
Source text: as §1

[17] = biological target: JAK2 (JH1domain-catalytic) (Homo sapiens (Human), UniProt O60674)
Source text: as §1

[18] = biological target: TGFBR1 (Homo sapiens (Human), UniProt P36897)
Source text: as §1

[19] = biological target: PAK1 (Homo sapiens (Human), UniProt Q13153)
Source text: as §1

[20] = biological target: JNK1 (Homo sapiens (Human), UniProt P45983)
Source text: as §1

[21] = biological target: VEGFR2 (Homo sapiens (Human), UniProt P35968)
Source text: as §1

[22] = biological target: CDK3 (Homo sapiens (Human), UniProt Q00526)
Source text: as §1

[23] = biological target: IKK-beta (Homo sapiens (Human), UniProt O14920)
Source text: as §1

[24] = biological target: PIK3CA (Homo sapiens (Human), UniProt P42336)
Source text: as §1

[25] = biological target: p38-beta (Homo sapiens (Human), UniProt Q15759)
Source text: as §1

[26] = biological target: FLT3 (Homo sapiens (Human), UniProt P36888)
Sequence of FLT3 (P36888 27-993): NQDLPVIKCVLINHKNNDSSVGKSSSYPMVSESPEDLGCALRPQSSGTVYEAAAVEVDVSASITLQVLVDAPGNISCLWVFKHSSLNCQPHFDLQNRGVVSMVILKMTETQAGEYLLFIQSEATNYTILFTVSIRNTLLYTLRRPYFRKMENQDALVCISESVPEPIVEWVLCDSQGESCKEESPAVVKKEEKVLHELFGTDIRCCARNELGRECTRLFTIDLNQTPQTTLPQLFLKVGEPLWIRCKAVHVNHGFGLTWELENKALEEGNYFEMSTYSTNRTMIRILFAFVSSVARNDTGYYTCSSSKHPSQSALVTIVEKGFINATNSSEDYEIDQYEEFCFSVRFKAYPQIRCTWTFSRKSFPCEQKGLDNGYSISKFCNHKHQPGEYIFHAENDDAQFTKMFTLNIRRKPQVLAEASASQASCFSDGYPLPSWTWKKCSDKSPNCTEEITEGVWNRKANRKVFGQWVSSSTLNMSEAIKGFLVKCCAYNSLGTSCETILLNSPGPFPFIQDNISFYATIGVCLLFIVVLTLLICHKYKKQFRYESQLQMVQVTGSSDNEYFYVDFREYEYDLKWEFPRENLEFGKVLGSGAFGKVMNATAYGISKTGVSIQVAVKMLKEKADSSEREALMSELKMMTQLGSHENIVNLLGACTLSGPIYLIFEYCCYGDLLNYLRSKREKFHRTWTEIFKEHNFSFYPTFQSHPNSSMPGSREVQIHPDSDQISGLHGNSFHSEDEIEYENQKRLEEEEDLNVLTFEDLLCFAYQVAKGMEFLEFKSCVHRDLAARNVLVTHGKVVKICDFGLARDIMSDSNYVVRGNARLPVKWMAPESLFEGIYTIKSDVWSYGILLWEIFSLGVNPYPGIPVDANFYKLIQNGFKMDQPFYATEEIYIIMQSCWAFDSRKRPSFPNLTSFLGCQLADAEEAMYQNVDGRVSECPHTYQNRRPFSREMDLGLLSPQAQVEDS
Source text: as §1

[27] = biological target: FAK (Homo sapiens (Human), UniProt Q05397)
Source text: as §1

[28] = biological target: BRAF(V600E) (Homo sapiens (Human), UniProt P15056, V600E)
Sequence of BRAF(V600E) (P15056 whole entry V600E): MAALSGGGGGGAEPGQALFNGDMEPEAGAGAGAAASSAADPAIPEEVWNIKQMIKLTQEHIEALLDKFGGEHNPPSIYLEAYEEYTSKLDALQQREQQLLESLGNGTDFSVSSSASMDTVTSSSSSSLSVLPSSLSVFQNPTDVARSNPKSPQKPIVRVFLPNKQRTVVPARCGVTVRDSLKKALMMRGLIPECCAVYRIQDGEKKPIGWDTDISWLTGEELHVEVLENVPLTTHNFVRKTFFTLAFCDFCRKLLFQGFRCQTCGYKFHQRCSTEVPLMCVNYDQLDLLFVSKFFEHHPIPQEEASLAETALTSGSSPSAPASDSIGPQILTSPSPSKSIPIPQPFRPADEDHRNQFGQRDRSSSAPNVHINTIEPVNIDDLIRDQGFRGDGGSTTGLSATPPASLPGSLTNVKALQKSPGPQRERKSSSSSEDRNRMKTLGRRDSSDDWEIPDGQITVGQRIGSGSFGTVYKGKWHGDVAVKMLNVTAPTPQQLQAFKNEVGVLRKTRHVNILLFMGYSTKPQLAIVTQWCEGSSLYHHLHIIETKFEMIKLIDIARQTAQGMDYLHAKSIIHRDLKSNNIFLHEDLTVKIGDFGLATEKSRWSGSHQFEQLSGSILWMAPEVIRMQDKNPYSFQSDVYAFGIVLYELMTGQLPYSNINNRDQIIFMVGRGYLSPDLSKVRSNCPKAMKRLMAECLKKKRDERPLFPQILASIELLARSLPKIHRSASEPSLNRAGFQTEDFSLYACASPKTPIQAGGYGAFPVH
Source text: as §1

[29] = biological target: IGF1R (Homo sapiens (Human), UniProt P08069)
Source text: as §1

[30] = biological target: ALK (Homo sapiens (Human), UniProt Q9UM73)
Sequence of ALK (Q9UM73 19-1620): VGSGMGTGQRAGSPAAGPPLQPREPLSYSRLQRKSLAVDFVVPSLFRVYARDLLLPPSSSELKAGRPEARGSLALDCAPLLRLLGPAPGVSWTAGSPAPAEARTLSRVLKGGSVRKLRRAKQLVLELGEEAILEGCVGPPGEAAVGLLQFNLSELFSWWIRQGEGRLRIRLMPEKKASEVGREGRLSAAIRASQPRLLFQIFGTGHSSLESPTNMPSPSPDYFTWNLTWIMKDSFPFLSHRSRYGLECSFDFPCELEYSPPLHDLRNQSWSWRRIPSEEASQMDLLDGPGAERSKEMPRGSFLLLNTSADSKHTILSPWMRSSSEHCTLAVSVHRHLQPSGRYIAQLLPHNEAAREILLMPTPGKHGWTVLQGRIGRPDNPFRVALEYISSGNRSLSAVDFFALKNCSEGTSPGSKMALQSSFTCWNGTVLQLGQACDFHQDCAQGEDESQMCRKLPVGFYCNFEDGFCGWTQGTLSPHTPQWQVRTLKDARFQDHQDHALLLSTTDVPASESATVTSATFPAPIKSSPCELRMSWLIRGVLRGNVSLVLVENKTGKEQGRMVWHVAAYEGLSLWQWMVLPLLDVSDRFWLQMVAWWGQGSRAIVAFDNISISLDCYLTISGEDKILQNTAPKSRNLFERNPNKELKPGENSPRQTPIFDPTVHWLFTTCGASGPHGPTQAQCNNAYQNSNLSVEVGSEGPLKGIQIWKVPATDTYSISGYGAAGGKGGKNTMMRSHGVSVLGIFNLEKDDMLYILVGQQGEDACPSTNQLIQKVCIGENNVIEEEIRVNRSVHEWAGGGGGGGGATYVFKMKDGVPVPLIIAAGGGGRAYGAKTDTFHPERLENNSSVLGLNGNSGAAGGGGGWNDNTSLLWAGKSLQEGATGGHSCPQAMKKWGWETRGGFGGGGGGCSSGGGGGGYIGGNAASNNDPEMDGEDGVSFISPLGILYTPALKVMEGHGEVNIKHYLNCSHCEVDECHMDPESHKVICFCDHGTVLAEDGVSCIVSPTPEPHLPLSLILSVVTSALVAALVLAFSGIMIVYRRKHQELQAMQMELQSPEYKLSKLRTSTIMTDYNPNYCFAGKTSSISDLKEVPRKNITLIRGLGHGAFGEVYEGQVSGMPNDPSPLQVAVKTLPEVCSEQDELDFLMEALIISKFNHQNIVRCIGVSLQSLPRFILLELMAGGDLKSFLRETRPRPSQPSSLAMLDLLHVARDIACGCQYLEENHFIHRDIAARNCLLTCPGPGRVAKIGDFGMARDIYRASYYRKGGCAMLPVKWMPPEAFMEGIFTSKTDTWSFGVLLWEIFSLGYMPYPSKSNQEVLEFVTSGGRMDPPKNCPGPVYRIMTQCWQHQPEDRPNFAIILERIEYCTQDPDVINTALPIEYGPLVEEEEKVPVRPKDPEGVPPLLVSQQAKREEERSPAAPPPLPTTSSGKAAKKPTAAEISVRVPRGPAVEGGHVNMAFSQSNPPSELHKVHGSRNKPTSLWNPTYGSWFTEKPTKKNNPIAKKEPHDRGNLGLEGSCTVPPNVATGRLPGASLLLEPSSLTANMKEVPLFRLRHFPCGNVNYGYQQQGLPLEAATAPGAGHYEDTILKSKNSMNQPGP
Source text: as §1

[31] = biological target: DYRK1B (Homo sapiens (Human), UniProt Q9Y463)
Source text: as §1

[32] = biological target: ZAP70 (Homo sapiens (Human), UniProt P43403)
Source text: as §1

[33] = biological target: ERBB2 (Homo sapiens (Human), UniProt P04626)
Source text: as §1

[34] = biological target: TIE2 (Homo sapiens (Human), UniProt Q02763)
Source text: as §1

[35] = biological target: BRAF (Homo sapiens (Human), UniProt P15056)
Source text: as §1

[36] = biological target: EGFR (Homo sapiens (Human), UniProt P00533)
Source text: as §1

[37] = biological target: MLK1 (Homo sapiens (Human), UniProt P80192)
Source text: as §1

[38] = biological target: IKK-alpha (Homo sapiens (Human), UniProt O15111)
Source text: as §1

With COc1cc2c(Oc3ccc(NC(=O)C4(C(=O)Nc5ccc(F)cc5)CC4)cc3F)ccnc2cc1OCCCCCC(=O)NO [Example 13, N1′-[3-fluoro-4-[[7-[6-(hydroxyamino)-6-oxohexyloxy]-6-methoxy-4-quinolyl]oxy]phenyl]-N1-(4-fluorophenyl)cyclopropane-1,1-dicarboxamide] the “% Ctrl@1000 nM” value [1] was 0.15 % Ctrl, the “% Ctrl@1000 nM” value [2] was 99 % Ctrl and the “% Ctrl@1000 nM” value [3] was 98 % Ctrl. For the same compound, the “% Ctrl@1000 nM” value [4] was 43 % Ctrl, the “% Ctrl@1000 nM” value [5] was 0.5 % Ctrl and the “% Ctrl@1000 nM” value [6] was 7.7 % Ctrl. For the same compound, the “% Ctrl@1000 nM” value [7] was 76 % Ctrl, the “% Ctrl@1000 nM” value [8] was 87 % Ctrl and the “% Ctrl@1000 nM” value [9] was 54 % Ctrl. For the same compound, the “% Ctrl@1000 nM” value [10] was 100 % Ctrl, the “% Ctrl@1000 nM” value [11] was 73 % Ctrl and the “% Ctrl@1000 nM” value [12] was 84 % Ctrl. The “% Ctrl@1000 nM” value [13] was 0.9 % Ctrl, the “% Ctrl@1000 nM” value [14] was 1.2 % Ctrl and the “% Ctrl@1000 nM” value [15] was 100 % Ctrl. The “% Ctrl@1000 nM” value [16] was 100 % Ctrl, the “% Ctrl@1000 nM” value [17] was 64 % Ctrl and the “% Ctrl@1000 nM” value [18] was 85 % Ctrl. The “% Ctrl@1000 nM” value [19] was 66 % Ctrl, the “% Ctrl@1000 nM” value [20] was 100 % Ctrl and the “% Ctrl@1000 nM” value [21] was 1 % Ctrl. The “% Ctrl@1000 nM” value [22] was 100 % Ctrl, the “% Ctrl@1000 nM” value [23] was 78 % Ctrl and the “% Ctrl@1000 nM” value [24] was 100 % Ctrl. For the same compound, the “% Ctrl@1000 nM” value [25] was 78 % Ctrl, the “% Ctrl@1000 nM” value [26] was 0.85 % Ctrl and the “% Ctrl@1000 nM” value [27] was 12 % Ctrl. For the same compound, the “% Ctrl@1000 nM” value [28] was 88 % Ctrl, the “% Ctrl@1000 nM” value [29] was 21 % Ctrl and the “% Ctrl@1000 nM” value [30] was 1.2 % Ctrl. The “% Ctrl@1000 nM” value [31] was 63 % Ctrl, the “% Ctrl@1000 nM” value [32] was 80 % Ctrl and the “% Ctrl@1000 nM” value [33] was 15 % Ctrl. The “% Ctrl@1000 nM” value [34] was 0.55 % Ctrl, the “% Ctrl@1000 nM” value [35] was 87 % Ctrl and the “% Ctrl@1000 nM” value [36] was 6.8 % Ctrl. For the same compound, the “% Ctrl@1000 nM” value [37] was 32 % Ctrl and the “% Ctrl@1000 nM” value [38] was 100 % Ctrl.

Source: US9186318B2, “Quinolyl-containing hydroxamic acid compound and preparation method thereof, and pharmaceutical composition containing this compound and use thereof” (Beijing Konruns Pharmaceutical Co., Ltd, priority 2011, dated 2015)
